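Protocol summary: plate cells (96-well), add compound at 5 concentrations, incubate 48 h, interpolate endpoints linearly. At the TGI there is no net growth.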
Columns and labels:
Test in all cases: NCI anticancer screen, dose series, 48 h
[1] = system: UO-31 renal
[2] = system: M14 melanoma
[3] = system: A498 renal
[4] = system: HCT-116 colon
[5] = system: CCRF-CEM leukemia
[6] = system: RXF 393 renal
[7] = system: SF-295 CNS
[8] = system: OVCAR-8 ovarian
[9] = system: HS 578T breast
[10] = system: A549 NSCLC
[11] = system: MDA-N

SMILES	TGI [1]	TGI [2]	TGI [3]	TGI [4]	TGI [5]	TGI [6]	TGI [7]	TGI [8]	TGI [9]	TGI [10]	TGI [11]
CCOC(=O)Cc1csc(N=Nc2c(O)[nH]c3ccccc23)n1	> 100 µM	> 100 µM	> 100 µM	> 100 µM	83.3 µM	> 100 µM	> 100 µM	> 100 µM	> 100 µM	> 100 µM	> 100 µM
COc1cc(C)cc2c(-c3c(O)cc(O)c4c3C[C@H](C)N[C@H]4C)cc(-c3cc(-c4c(O)cc(O)c5c4C[C@H](C)N[C@H]5C)c4cc(C)cc(OC)c4c3O)c(O)c12	> 100 µM	> 100 µM	> 100 µM	> 100 µM	> 100 µM	> 100 µM	> 100 µM	> 100 µM	> 100 µM	> 100 µM	> 100 µM
COC(=O)/C=C1\C(=O)C=C2[C@@H]3C[C@H]4C[C@H](CC[C@@]4(C)N21)C3(C)NC(C)=O (some centres undefined)	> 52.4 µM	26.4 µM	38.9 µM	24 µM	34.7 µM	> 39.9 µM	44.1 µM	51.2 µM	39 µM	> 57.4 µM	33.4 µM
COC1(OC)C=CC(=O)C=C1	4.22 µM	11.5 µM	> 91.2 µM	2.77 µM	22.4 µM	4.51 µM	23.9 µM	7.61 µM	> 40.5 µM	21.3 µM	> 36.8 µM
COC(=O)[C@](C)(Cc1ccccc1)NC(=O)[C@@H](C)N1[C@@H](c2ccccc2)COC1(C)C	> 100 µM	> 100 µM	> 100 µM	> 100 µM	> 100 µM	> 100 µM	> 100 µM	> 100 µM	> 100 µM	> 100 µM	> 100 µM
NC1c2c(Cl)sc(Cl)c2C(=O)C1O (centres undefined)	> 100 µM	> 100 µM	> 100 µM	> 100 µM	37.7 µM	25.7 µM	> 100 µM	51.8 µM	> 100 µM	> 100 µM	> 100 µM
C=CCc1ccccc1C1CC2(C(=O)OC)OC1C(C(=O)OC)=C2C(=O)OC (centres undefined)	> 10 µM	> 10 µM	> 10 µM	> 10 µM	> 10 µM	> 10 µM	> 10 µM	> 10 µM	> 10 µM	> 10 µM	> 10 µM
COC(=O)c1cc(C)ccc1/C=C1\Cc2c(C)cc(C)cc2C1=O	> 85.8 µM	> 100 µM	76.4 µM	> 100 µM	> 100 µM	44.5 µM	33.1 µM	> 100 µM	42.9 µM	> 100 µM	> 100 µM
Nn1c(Sc2nc3ccccc3c(=O)n2N)nc2ccccc2c1=O	3.26 µM	4.02 µM	36.5 µM	12.6 µM	4.51 µM	25.1 µM	42.1 µM	11.1 µM	> 53.7 µM	39 µM	15.5 µM
CCN(CC)C1Oc2cc3c(cc2C(c2cc(OC)c(OC)c(OC)c2)C1C)OCO3 (centres undefined)	> 46.7 µM	> 37.9 µM	6.65 µM	13.4 µM	> 22.9 µM	> 44.1 µM	10 µM	> 43.2 µM	> 100 µM	> 46.8 µM	0.456 µM
COc1ccc(OC)c(C[P+](c2ccccc2)(c2ccccc2)c2ccccc2)c1	79.4 µM	18.3 µM	23.5 µM	14.4 µM	> 26.8 µM	25.8 µM	> 75.9 µM	> 65.3 µM	8.45 µM	> 56.4 µM	29.8 µM
CC1CN=C(c2ccc(-c3nc(-c4ccc(C5=NCC(C)N5)cc4)nc(N(C)C)n3)cc2)N1 (centres undefined)	19.9 µM	8.68 µM	6.7 µM	3.16 µM	3.59 µM	12.8 µM	15.8 µM	10 µM	17.6 µM	12.8 µM	4.03 µM
O=c1oc2cccnc2n1CCCCN1CCN(c2ccccc2)CC1	> 100 µM	> 100 µM	> 100 µM	> 100 µM	> 100 µM	> 100 µM	> 100 µM	> 100 µM	> 100 µM	> 100 µM	> 100 µM
CC(=Nc1cc(Cl)cc(Cl)c1)c1ccncc1	> 100 µM	> 100 µM	> 100 µM	> 100 µM	> 100 µM	> 100 µM	> 100 µM	> 100 µM	> 100 µM	> 100 µM	> 100 µM

Reference: PubChem BioAssay (NCI)
